{"source": "patent EP4599827A1", "about": "“DGL FOR THE INDUCTION OF ENDOTHELIAL-DERIVED NO-DEPENDENT VASODILATION” (Dr. Kurt Wolff GmbH & Co. KG, priority 2024, dated 2025)", "assay_type_in_all_cases": "cell-based, human", "key": {"[1]": {"test_system": "eNOS", "test": "Western blot of eNOS protein content in HDMECs", "source_text": "(§1) Adulte humane mikrovaskuläre Endothelzellen der Haut (HDMECs) wurden 2023 von Lonza Ltd (Basel, Schweiz) erworben und kultiviert in EBM™-2 Endothelial Cell Growth Basal Medium, ergänzt mit EGM™-2 MV Microvascular Endothelial SingleQuots™ Kit (beide von Lonza Ltd, Basel, Schweiz), enthaltend humanen epidermalen Wachstumsfaktor, vaskulären Endothelial Growth Factor, R^3-Insulin-like Growth Factor-1, Ascorbinsäure, Hydrocortison, humanen Fibroblasten-Wachstumsfaktor-Beta, fötales Rinderserum und Gentamicin/Amphotericin-B und gemäß den Richtlinien des Herstellers kultiviert. Die HDMECs wurden von 2 verschiedenen weiblichen Spendern initiiert und es wurden die Passagen 4 bis 8 wurden für die Experimente verwendet.\nHDMECs wurden in 6-Well-Platten ausgesät und für 24 Stunden mit DMG-Na (0,005% und 0,05%) behandelt. Nach der Behandlung wurden die Zellen in Lysispuffer (30 mM TRIS, pH 7,6, 140 mM NaCl, 5 mM EDTA, 50 mM NaF, 1 mM Na3VO4), der mit Proteaseinhibitoren ergänzt wurde, geerntet. Nach kräftigem Vortexen und Zentrifugieren wurde der Proteingehalt der Proben unter Verwendung des Pierce BCA Protein Assay Kits (Thermo Fisher Scientific, Waltham, MA) bestimmt. Gleiche Mengen an Proteinproben wurden einer 7,5%-igen SDS-PAGE unterzogen und auf Nitrocellulose-Membranen (Bio-Rad Laboratories, Hercules, CA) übertragen. […]"}, "[2]": {"test_system": "HDMECs", "test": "Microfluorimetric measurement of NO (DAF-FM DA) in HDMECs", "conditions": "DAF-FM-DA microfluorimetry, increase vs control", "source_text": "as §1\nHDMECs wurden mit einer Dichte von 15.000 Zellen pro Well in einer schwarzen 96-WellPlatte mit klarem Boden (Greiner Bio-One, Kremsmünster, Österreich) ausgesät und in Wachstumsmedium bei 37 °C für 24 Stunden kultiviert. Anschließend wurden die Zellen mit 5 µM DAF-FM DA (4-Amino-5-methylamin-2',7'-difluororesceindiacetat) in phenolrotfreiem DMEM (beides von Thermo Fisher Scientific, Waltham, MA), ergänzt mit 0,5% FBS (Serana Europe GmbH, Brandenburg, Deutschland) für 1 Stunde bei 37 °C inkubiert. […]"}, "[3]": {"test_system": "eNOS", "test": "Immunocytochemistry of eNOS expression in HDMECs", "conditions": "semiquantitative immunocytochemistry, 24 h treatment, DMG-Na 0,005%, 0,02% and 0,05%", "source_text": "as §1\nHDMECs (5.000 Zellen pro 10 mm runde Glasdeckgläser), die mit DMG-Na (0,005%, 0,02% und 0,05%) behandelt wurden, wurden in 1% Paraformaldehyd (PFA, Merck KGaA, Darmstadt) für 10 Minuten bei Raumtemperatur fixiert und nach einem Waschschritt mit phosphatgepufferter Kochsalzlösung (PBS, Merck KGaA) für 5 Minuten mit -20 °C kalter Ethanol-Essigsäure (2:1) nachfixiert. […]"}}}
{"compound": "CN(C)CC(=O)O", "note": "[DMG-Na, N,N-Dimethylglycin-Natriumsalz]", "values": [{"measurement": "Proteingehalt von eNOS", "setting": "[1]; 24 h, 0,05% DMG-Na, increase vs control, p=0,0189", "result": "statistisch signifikant"}, {"measurement": "Proteingehalt von eNOS", "setting": "[1]; 24 h, DMG-Na 0,005% and 0,05%, vs control", "result": "dosisabhängig"}, {"measurement": "zelluläre NO-Produktion", "setting": "[2]; 0.02%, p=0,0002", "result": "statistisch signifikant"}, {"measurement": "zelluläre NO-Produktion", "setting": "[2]; 0.05%, p=0,0001", "result": "statistisch signifikant"}, {"measurement": "Expression von eNOS", "setting": "[3]", "result": "Expression von eNOS nach 24-stündiger Behandlung zu erhöhen"}]}
